Measurements from patent publication US6664271B1, “Immunopotentiator agents” (Eli Lilly and Company, priority 1999, dated 2003).
Marks after values point to notes of the source that are not given here.

What was measured:
E. coli 19B = experiment: bacterial clearance of E. coli from peripheral blood of neonatal chicks (Example 77); type: in vivo, chick; conditions: single subcutaneous injection of 25 μg, E. coli challenge, blood 14-18 hours post-challenge
Description: The compounds of Example 15 ((S)-ethyl 1-benzoyl-3-piperidinecarboxylate), Example 29 (1-benzoyl-3-butyrylpiperidine), Example 30 ((S)-ethyl 1-(2-thiopheneacetyl)-3-piperidinecarboxylate) and Example 68 ((S)-ethyl 1-benzyl-3-piperidinecarboxylate 1-methiodide), respectively, were tested to determine whether a single subcutaneous injection enhanced the bacterial clearance of E. coli from the peripheral blood of neonatal chicks. Bacterial clearance is a measurement of cell-mediated immunity, specifically, phagocyte function, in animals. An approved Animal Care and Use Committee protocol governed the activity in this experiment.
1 ml syringes with 21 g 1″ needles (Becton Dickinson and Company Franklin Lakes, N.J. 07417-1884); 1 ml syringe with 25 g ⅝″ needles (Becton Dickinson and Company Franklin Lakes, N.J. 07417-1884); EMB agar plates (Difco Laboratories, Becton Dickinson Microbiology Systems, Sparks, Md. 21152); Culture tubes (14 ml polystyrene round bottom, Becton Dickinson Labware, Franklin Lakes, N.J. 07417-1886); Dulbecco's Phosphate Buffered Saline w/o Mg^++ or Ca^++ (Gibco BRL, Life Technologies Rockville, Md. 20850). Peterson x Hubbard male chicks (day of hatch from a commercial hatchery) were utilized
160 chicks were divided into 6 groups: Group 1=Controls (acetate-buffered saline vehicle); Group 2=Compound of Example 15 ((S)-ethyl 1-benzoyl-3-piperidinecarboxylate); Group 3=Compound of Example 29 (1-benzoyl-3-butyrylpiperidine); Group 4=Compound of Example 30 ((S)-ethyl 1-(2-thiopheneacetyl)-3-piperidinecarboxylate); Group 5=Compound of Example 68 ((S)-ethyl 1-benzyl-3-piperidinecarboxylate 1-methiodide); and Group 6=environmental controls. Groups 1-5 contained 3 replicates of 10 chicks each and Group 6 contained 1 replicate of 10 chicks.
Day −2 Upon arrival, day of hatch chicks were randomized (10/group), and placed in a Petersime heated brooder battery unit (Petersime Incubator Company, Gettysburg, Ohio 45328). […] All chicks were given ad libitum access to a commercially available starter feed and water.
Day 0 11:00 AM. Five to ten colonies of E. coli 19B were selected from a fresh overnight blood agar plate (TSA II with 5% sheep blood, Becton Dickinson Microbiology Systems Cockeysville, Md. 21030) and placed into 100 ml Brain Heart Infusion broth (Difco Laboratories, Becton Dickinson Microbiology Systems Sparks, Md. 21152) in a flask. […]
Day 5 EMB plates were removed from the incubator and bacterial colonies were counted and recorded to calculate CFU/ml/chick.
Data was transformed to logio values, and analysis of variance was used to determine significant differences between the treatment groups and controls. Data was expressed as the percentage of enhancedbacterial clearance compared to E. coli-challenged controls. […]

chicken leukocytes = experiment: cells; type: cell-based; conditions: for minimal effective concentration: Gallus gallus, Leukocyte, read-out: MSC (Minimum Stimulatory Concentration)
Description: Various compounds of Formula I were evaluated for in vitro T-lymphocyte blastogenic activity with chicken leukocytes according to the steps described in the following procedure:
(a) Exsanguination step. The leukocytes were obtained from 3-6 week old Hubbard/Peterson broiler chickens. Initially, the chickens were rendered unconscious in a CO2 chamber. The chickens were then exsanguinated via cardiac puncture. In the exsanguination procedure, a syringe was connected to a needle, and the needle was inserted into the area at the base of the neck under the “V” formed by the breast and sternum. After the needle was properly inserted, continuous vacuum was applied to a syringe (connected to the needle) by pulling back on the plunger. It is important to promptly carry out this withdrawal action, because there is only a 10-15 seconds time period after the blood has starting flowing into the syringe before the blood coagulates, and becomes unusable. As soon as the syringe is full (or prior to complete filling if too much time has elapsed such that the blood begins to coagulate), the whole uncoagulated blood is transferred to a tube having the anticoagulant EDTA therein. The tube is then rotated to mix the whole blood and the EDTA. Alternatively, the whole blood can be withdrawn directly into a vacuum container already having EDTA therein, rather than into a syringe.
(b) Leukocyte isolation step. Numerous methods for isolating leukocytes from (uncoagulated) whole blood are known in the art. In a preferred method, the sterile whole blood was combined with methylcellulose (1.5:1). Any blood containing clots was discarded. The mixture was centrifuged at 30×g for ten minutes (300 rpm on Beckman GS-6R centrifuge). The top layer (leukocytes in supernatant) was decanted into a sterile 50 ml conical tube, while taking care to prevent contamination of the sample by red blood cells. The decanted layer was then centrifuged at 200×g for ten minutes (1500 rpm on the Beckman GS-6R centrifuge). The supernatant liquid was discarded, and the resulting cell “pellet” was retained.
The cells were then washed in a solution containing 10 ml PBS (phosphate buffered saline) and Gentamycin (gentamicin sulfate) at a concentration of 50 μg/ml. This solution was centrifuged at 100×g (1000 rpm on the Beckman centrifuge) for five minutes, and the supernatant liquid was discarded. The washing step (including the centrifuging at 100×g) was repeated to ensure complete removal of the methylcellulose. The use of media such as DMEM ([…]) was avoided in the washing steps, since such media may cause agglutination of the white blood cells. Finally, the cells were then suspended in an appropriate media, such as RPMI 1640 tissue cell culture medium, supplemented with phenol red, NaHCO3, and L-Glutamide. Supplemented RPMI 1640 is available from Sigma-Aldrich Chemical Co.
(c) Cell counting and cell viability step. The cells were counted and checked for viability using the Trypan Blue method of exclusion. 0.1 ml of the cell suspension was placed in a 4-5 ml small culture tube along with 0.7 ml HBSS (Hank's Buffered Saline Solution), available from Sigma-Aldrich, and 0.2 ml of a 0.4% solution of aqueous Trypan Blue stain, available from GIBCO BRL, of Grand Island, N.Y. The components were mixed thoroughly but gently, and allowed to sit for 5 minutes (no longer than 15 minutes). The components should not be exposed to the stain for extended periods of time, because such extended exposure may permit viable cells, as well as non-viable cells, to take up dye.
A cover slip was placed on a Bright Line hemacytometer, available from Howser Scientific, and 10 μl of the mixture from the tube was transferred to each chamber. Non-viable cells appear blue under a microscope. The viable cells in one of the 16-square corners of the hemacytometer were then counted. […]

[1] = chicken leukocytes, read at 72 hours
[2] = Hubbard/Peterson broiler, chicken, 72 h

Molecule | % Enhanced Clearance Compared to Controls (E. coli 19B) | minimal effective concentration (chicken leukocytes; [1]) | MTC (Maximum Tolerable Concentration prior to causing cytotoxicity) (chicken leukocytes; [2]) | MSC (Minimum Stimulatory Concentration) (chicken leukocytes; [1]) | MTC (Maximum Tolerable Concentration prior to causing cytotoxicity) (chicken leukocytes; [1])
CCOC(=O)[C@H]1CCCN(C(=O)c2ccccc2)C1 [Example 15, (S)-Ethyl 1-Benzoyl-3-piperidinecarboxylate] | 34* % | 0.1 µg/mL | 10 µg/mL |  | 
CCCC(=O)C1CCCN(C(=O)c2ccccc2)C1 (stereo not shown) [Example 29, 1-Benzoyl-3-butyrylpiperidine] | 33* % | 1 µg/mL | 10 µg/mL |  | 
CCOC(=O)C1CCCN(C(=O)CCc2ccccc2)C1 (stereo not shown) [Example 43, Ethyl 1-(1-Phenylpropionyl)-3-piperidinecarboxylate] |  |  |  | 1 µg/mL | 
CS(=O)(=O)OC1CCCN(C(=O)Cc2cccs2)C1 (stereo not shown) [Example 44, 1-(2-Thiopheneacetyl)-3-(O-methanesulfonyl)piperidine] |  |  |  | 1 µg/mL | 10 µg/mL
CCC(=O)OC1CCCN(C(=O)Cc2cccs2)C1 (stereo not shown) [Example 46, 1-(2-Thiopheneacetyl)-3-(O-propionyl)piperidine] |  |  |  | 1 µg/mL | 10 µg/mL
CCOC(=O)[C@H]1CCCN(C(=O)NCc2ccccc2)C1 [Example 48, (S)-Ethyl 1-(N-Benzylurea)-3-piperidinecarboxylate] |  |  |  | 10 µg/mL | 
CCOC(=O)[C@H]1CCCN(C(=O)NC)C1 [Example 49, (S)-Ethyl 1-(N-Methylurea)-3-piperidinecarboxylate] |  |  |  | 1 µg/mL | 10 µg/mL
O=C(O)[C@H]1CCCN(C(=O)c2ccccc2)C1 [Example 50, (S)-1-Benzoyl-3-piperidinecarboxylic Acid] |  | 1 µg/mL | 10 µg/mL |  | 
COC(=O)[C@H]1CCCN(C(=O)c2ccccc2)C1 [Example 52, (S)-Methyl 1-Benzoyl-3-piperidinecarboxylate] |  | 0.1 µg/mL | 10 µg/mL |  | 
CCCOC(=O)[C@H]1CCCN(C(=O)c2ccccc2)C1 [Example 53, (S)-Propyl 1-Benzoyl-3-piperidinecarboxylate] |  | 1 µg/mL | 10 µg/mL |  | 
CCOC(=O)[C@H]1CCCN(CCCc2cccs2)C1 [Example 54, (S)-Ethyl 1-(2-Thienylpropyl)-3-piperidinecarboxylate] |  | 1 µg/mL | 10 µg/mL |  | 
CCOC(=O)C1CC(C)CN(C(=O)Cc2cccs2)C1 (stereo not shown) [Example 57, Ethyl 1-(2-Thiopheneacetyl)-5-methyl-3-piperidinecarboxylate] |  | 10 µg/mL | 10 µg/mL |  | 
O=C(Cc1cccs1)N1CCC[C@H](CO)C1 [Example 59] |  |  |  | 10 µg/mL | 100 µg/mL
CCOC(=O)C1CN(C(=O)Cc2cccs2)CCC1C (stereo not shown) [Example 62, Ethyl 1-(2-Thiopheneacetyl)4-methyl-3-piperidinecarboxylate] |  | 1 µg/mL | 10 µg/mL |  | 
O=C[C@H]1CCCN(C(=O)Cc2cccs2)C1 [Example 63, (S)-1-(2-Thiopheneacetyl)-3-piperidinecarboxaldehyde] |  | 1 µg/mL | 10 µg/mL |  | 
N#C[C@H]1CCCN(C(=O)Cc2cccs2)C1 [Example 64, (S)-1-(2-Thiopheneacetyl)-3-piperidinonitrile] |  | 1 µg/mL | 10 µg/mL |  | 
CCOC(=O)C1CCC[N@+](C)(Cc2ccccc2)C1.[I-] (stereo partly drawn) [Example 68, (S)-Ethyl 1-Benzyl-3-piperidinecarboxylate 1-methiodide] | 50* % |  |  | 1 µg/mL | 
CN(C)C(=O)C1CCC[N@+](C)(Cc2ccccc2)C1.[I-] (stereo partly drawn) [Example 71, (S)-N,N-Dimethyl 1-Benzyl-3-piperidinecarboxamide 1-methiodide] |  |  |  | 0.1 µg/mL | 
(S)-Ethyl 1-(2-Thiazyl)-3-piperidinecarboxylate 1-methiodide [Example 73] |  |  |  | 1 µg/mL | 
Ethyl 1-(2-Bromobenzoyl)-2-acetylpiperidinecarboxylate [Example 45] |  |  |  | 1 µg/mL | 
